Measured values from US12459951B2, “Compounds that interact with RAS superfamily proteins for treatment of cancers, inflammatory diseases, rasopathies, and fibrotic disease” (SHY Therapeutics, LLC, priority 2022, dated 2025).

Columns and labels:
Erk1/2 phosphorylation = test: Erk1/2 Phosphorylation Assay (western blot), Panc-1; format: cell-based, human; conditions: at 10 μM, * = activation
In short: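 KRas G12D Panc-1 cells were treated 6 h at 37° C with compound at 10 μM or serial dilutions for IC50 (0.3% DMSO). In method 1, cells were serum-starved overnight (0.5% FBS) and then given 1.5 ng/ml EGF for 15 min. In method 2, cells stayed in 10% FBS without stimulation. Lysate phospho-Erk1/2 (Thr202/Tyr204) was read by western blot.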

KRas G12C mutant = test: Ras GTP Binding Domain Inhibition Assay (Ras Superfamily Assay); conditions: 20 μM compound; for KRas G12C mutant + SOS: % inh.: with SOS; for KRas G12C mutant: % inh.: without SOS
In short: (§1)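 Binding of 100 nM fluorescent GTP (Cy3 or Cy5, 45 min, room temperature) was read after washes from plate-captured His-tagged protein. Beforehand, compounds at 20 μM or in dilution series for IC50 sat 3 h on the protein in Tris buffer pH 7.4 or 7.0 with 1% DMSO, Sos GEF optionally added for the last hour.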

KRas G12D mutant = test: as above; conditions: 20 μM compound; for KRas G12D mutant + SOS: % inh.: with SOS; for KRas G12D mutant: % inh.: without SOS
In short: as §1

KRas Q61H mutant = test: as above; conditions: 20 μM compound; for KRas Q61H mutant + SOS: % inh.: with SOS; for KRas Q61H mutant: % inh.: without SOS
In short: as §1

KRas wild type = test: as above; conditions: 20 μM compound; for KRas wild type + SOS: % inh.: with SOS; for KRas wild type: % inh.: without SOS
In short: as §1

Rac-1 = molecular target: T1, Rac-1 (Homo sapiens, UniProt P63000); test: as above; conditions: read-out: Rac-1: % inh.
T1 construct: made in house
In short: as §1

Rho-A = molecular target: T2, Rho-A (Homo sapiens, UniProt P61586); test: as above; conditions: read-out: Rho-A: % inh..
T2 construct: made in house
In short: as §1

T2 sequence (P61586 whole entry): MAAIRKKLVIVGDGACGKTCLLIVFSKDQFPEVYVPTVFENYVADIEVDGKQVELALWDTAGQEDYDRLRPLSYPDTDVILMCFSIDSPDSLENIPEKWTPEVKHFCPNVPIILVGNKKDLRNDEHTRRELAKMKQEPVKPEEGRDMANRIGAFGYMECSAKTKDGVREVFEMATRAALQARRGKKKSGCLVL

SMILES	% inh of Erk1/2 phosphorylation in Panc-1 (Erk1/2 phosphorylation)	KRas G12C mutant + SOS: % inh. (KRas G12C mutant)	KRas G12C mutant: % inh. (KRas G12C mutant)	KRas G12D mutant + SOS: % inh. (KRas G12D mutant)	KRas G12D mutant: % inh. (KRas G12D mutant)	KRas Q61H mutant + SOS: % inh. (KRas Q61H mutant)	KRas Q61H mutant: % inh. (KRas Q61H mutant)	KRas wild type + SOS: % inh. (KRas wild type)	KRas wild type: % inh. (KRas wild type)	inhibition at 20 µM (Rac-1)	inhibition at 20 µM (Rho-A)
COc1cc(Nc2nc(-c3nccn3C)nn3cc(-c4cccnc4)c(C)c23)ncn1 [Compound 48, N-(6-Methoxypyrimidin-4-yl)-5-methyl-2-(1-methyl-1H-imidazol-2-yl)-6-(pyridin-3-yl)pyrrolo[2,1-f][1,2,4]triazin-4-amine]	A (1-25% inhibition)	A (A = 1-25% inhibition)	C (C = 50-75% inhibition)	C (C = 50-75% inhibition)	C (C = 50-75% inhibition)	D (D = 76-100% inhibition)	D (D = 76-100% inhibition)	B (B = 26-49% inhibition)	C (C = 50-75% inhibition)	50 to 75%	76 to 100%
CO[C@H]1CC[C@@H](Nc2nc(-c3ccccn3)nn3cc(-c4ccn(C(C)C)n4)c(-c4ccccc4)c23)C1 (racemic) [Compound 24, rac 6-(1-Isopropyl-1H-pyrazol-3-yl)-N-((1R,3S)-3-methoxycyclopentyl)-5-phenyl-2-(pyridin-2-yl)pyrrolo[2,1-f][1,2,4]triazin-4-amine]	0 (0% inhibition)	0 (0 = 0% inhibition)	0 (0 = 0% inhibition)	0 (0 = 0% inhibition)	0 (0 = 0% inhibition)	0 (0 = 0% inhibition)	0 (0 = 0% inhibition)	0 (0 = 0% inhibition)	0 (0 = 0% inhibition)	0%	0%
COC[C@@H]1CC[C@@H]1CNc1nc(-c2ccccn2)nn2cc(-c3ccn(C(C)C)n3)c(-c3ccccc3)c12 (racemic) [Compound 26, rac 6-(1-Isopropyl-1H-pyrazol-3-yl)-N-(((1S,2R)-2-(methoxymethyl)cyclobutyl)methyl)-5-phenyl-2-(pyridin-2-yl)pyrrolo[2,1-f][1,2,4]triazin-4-amine]	D (85-100% inhibition)	A (A = 1-25% inhibition)	0 (0 = 0% inhibition)	A (A = 1-25% inhibition)	0 (0 = 0% inhibition)	A (A = 1-25% inhibition)	A (A = 1-25% inhibition)	0 (0 = 0% inhibition)	A (A = 1-25% inhibition)	0%	1 to 25%
COc1cccc(-c2cn3nc(-c4nccn4C)nc(N[C@@H]4CC[C@H](OC)C4)c3c2-c2ccccc2)c1Cl (racemic) [Compound 33, rac 6-(2-Chloro-3-methoxyphenyl)-N-((1R,3S)-3-methoxycyclopentyl)-2-(1-methyl-1H-imidazol-2-yl)-5-phenylpyrrolo[2,1-f][1,2,4]triazin-4-amine]	D (85-100% inhibition)	0 (0 = 0% inhibition)	A (A = 1-25% inhibition)	0 (0 = 0% inhibition)	A (A = 1-25% inhibition)	0 (0 = 0% inhibition)	A (A = 1-25% inhibition)	0 (0 = 0% inhibition)	A (A = 1-25% inhibition)	0%	1 to 25%
Cc1c(-c2ccn(C(C)C)n2)cn2nc(-c3nccn3C)nc(Nc3cc(C4CC4)n[nH]3)c12 [Compound 68, N-(3-Cyclopropyl-1H-pyrazol-5-yl)-6-(1-isopropyl-1H-pyrazol-3-yl)-5-methyl-2-(1-methyl-1H-imidazol-2-yl)pyrrolo[2,1-f][1,2,4]triazin-4-amine]	D* (85-100% activation)	D (D = 76-100% inhibition)	D (D = 76-100% inhibition)	D (D = 76-100% inhibition)	D (D = 76-100% inhibition)	D (D = 76-100% inhibition)	D (D = 76-100% inhibition)	D (D = 76-100% inhibition)	D (D = 76-100% inhibition)	76 to 100%	76 to 100%
COc1cccc(-c2cn3nc(-c4nccn4C)nc(N[C@@H]4CC[C@@H](OC)C4)c3c2-c2ccccc2)c1F (racemic) [Compound 43, rac 6-(2-Fluoro-3-methoxyphenyl)-N-((1R,3R)-3-methoxycyclopentyl)-2-(1-methyl-1H-imidazol-2-yl)-5-phenylpyrrolo[2,1-f][1,2,4]triazin-4-amine]	D (85-100% inhibition)	0 (0 = 0% inhibition)	0 (0 = 0% inhibition)	0 (0 = 0% inhibition)	A (A = 1-25% inhibition)	B (B = 26-49% inhibition)	B (B = 26-49% inhibition)	0 (0 = 0% inhibition)	0 (0 = 0% inhibition)	1 to 25%	1 to 25%
Cc1c(-c2ccn(C(C)C)n2)cn2nc(-c3nccn3C)nc(Nc3ncccn3)c12 [Compound 54, 6-(1-Isopropyl-1H-pyrazol-3-yl)-5-methyl-2-(1-methyl-1H-imidazol-2-yl)-N-(pyrimidin-2-yl)pyrrolo[2,1-f][1,2,4]triazin-4-amine]	C (50-84% inhibition)	C (C = 50-75% inhibition)	D (D = 76-100% inhibition)	C (C = 50-75% inhibition)	D (D = 76-100% inhibition)	D (D = 76-100% inhibition)	D (D = 76-100% inhibition)	C (C = 50-75% inhibition)	C (C = 50-75% inhibition)	76 to 100%	76 to 100%
COc1cccc(-c2cn3nc(-c4nccn4C)nc(N[C@H]4C[C@H](OC)C4)c3c2-c2ccccn2)c1F [Compound 45, 6-(2-Fluoro-3-methoxyphenyl)-N-((1r,3r)-3-methoxycyclobutyl)-2-(1-methyl-1H-imidazol-2-yl)-5-(pyridin-2-yl)pyrrolo[2,1-f][1,2,4]triazin-4-amine]	0 (0% inhibition)	A (A = 1-25% inhibition)	B (B = 26-49% inhibition)	A (A = 1-25% inhibition)	B (B = 26-49% inhibition)	D (D = 76-100% inhibition)	D (D = 76-100% inhibition)	B (B = 26-49% inhibition)	B (B = 26-49% inhibition)	50 to 75%	50 to 75%
COc1cccc(-c2cn3nc(-c4nccn4C)nc(N[C@H]4C[C@H](OC)C4)c3c2-c2ccccc2)c1F [Compound 42, 6-(2-Fluoro-3-methoxyphenyl)-N-((1r,3r)-3-methoxycyclobutyl)-2-(1-methyl-1H-imidazol-2-yl)-5-phenylpyrrolo[2,1-f][1,2,4]triazin-4-amine]	D (85-100% inhibition)	0 (0 = 0% inhibition)	0 (0 = 0% inhibition)	0 (0 = 0% inhibition)	0 (0 = 0% inhibition)	B (B = 26-49% inhibition)	B (B = 26-49% inhibition)	0 (0 = 0% inhibition)	0 (0 = 0% inhibition)	0%	1 to 25%
